Test results from US7192606B2, “Drugs for treating viral infections” (priority 2004, dated 2007).
Values after ≈ are worked out from the molar mass of the structure shown. Like-named read-outs stand apart in the source and are kept apart here.

Experiments:
cowpox virus [1] = settings: cited from earlier work
cowpox virus [2] = assay: microbe, parasite or virus in culture; assay type: cell-based; settings: HFF
[3] = Neutral Red Uptake Assay (toxicity); settings: human, stationary HFF cells
cowpox virus [4] = assay type: cell-based
[5] = Parallel Artificial Membrane Permeability Assay (PAMPA)-MS; settings: hexadecane membrane layer, 4 hr, 50 microM in PBS, LC-MS
Caco-2 cells = assay: Caco-2 cell permeability assay; settings: for A side % Remaining at 2 hrs: Caco-2, A side; for B side % Remaining at 2 hrs: Caco-2, B side; for A-B: Caco-2, apical to basolateral; for A-B / B-A: 25 microM, 2 hours, 37° C.; for B-A: Caco-2, basolateral to apical
[6] = test system: variola virus (smallpox) isolates; assay type: cell-based
stationary HFF cells = assay: Neutral Red Uptake Assay (toxicity); settings: Neutral Red Uptake
[7] = Caco-2 cell permeability assay; settings: human, Caco-2
cowpox virus [8] = assay type: cell-based; remark: listed apart in the source
vaccinia virus = assay type: cell-based
cowpox virus [9] = test system: cowpox virus; set-up: species or system BALB/c mice; settings: mouse, in vivo

Compound: Nc1ccn(C[C@@H](CO)OCP(=O)(O)O)c(=O)n1 [CDV, reference compound]
- active concentration in these cells (cowpox virus [1]): about 12.0 microgram/mL
- EC90 (cowpox virus [2]): 18.7 µg/mL (≈ 67 µM)
- CC50 [3]: > 100 µg/mL

Compound: O=S(=O)(NC12CC3CC(CC(C3)C1)C2)NS(=O)(=O)NC12CC3CC(CC(C3)C1)C2 [Example 1, N,N^1-Bis(tricyclo[3.3.1.1^3,7]dec-1-yl)imidodisulfamide]
- plaques at 1.0 microgram/mL (cowpox virus [4]): tiny relative to the untreated ones
- plaques at 3.0 microgram/mL (cowpox virus [4]): nearly completely eliminated
- EC50 (cowpox virus [4]; 3 days): 2.0 microgram/mL
- concentration up to which cell monolayers were healthy (monkey (Vero) cells): ≥ 30 microgram/mL
- permeability [5]: 4.3e-07 cm/s
- CC50 (uninfected cells): 43.0 microgram/mL
- A side % Remaining at 2 hrs (Caco-2 cells): 85.05%
- B side % Remaining at 2 hrs (Caco-2 cells): 105.39%
- Ratio (Caco-2 cells; Caco-2, B-A / A-B): 2.1
- A-B (Caco-2 cells): 9.07
- B-A (Caco-2 cells): 18.85
- average EC50 [6]: 0.10 microgram/mL
- CC50 (stationary HFF cells): 78.9 microgram/mL

Compound: CC(C)NCC(O)COc1cccc2ccccc12 (stereo not drawn) [Propranolol, reference compound]
- A side % Remaining at 2 hrs (Caco-2 cells): 68.60%
- B side % Remaining at 2 hrs (Caco-2 cells): 88.38%
- A-B (Caco-2 cells): 39.03
- B-A (Caco-2 cells): 72.42
- efflux ratio at 2 h, 25 microM [7]: 1.9

Compound: Sodium N,N^1-(Tricyclo[3.3.1.1^3,7]dec-1-yl)imidodisulfamide [Example 11]
- EC50 (cowpox virus [8]): EC50: 0.50 microgram/mL;
- EC90 (cowpox virus [8]): EC90: 2.10 microgram/mL;
- EC50 (vaccinia virus): EC50: 0.04 microgram/mL;
- EC90 (vaccinia virus): EC90: 0.11 microgram/mL;
- CC50 (stationary HFF cells): 87.6 microgram/mL
- Lung titer on Day 3 (cowpox virus [9]): 6.6±1.3
